Measurements published in paper PMC12655637, “Design, Synthesis, and Mechanistic Study of Novel Ciprofloxacin/Thiazole Chalcone Hybrids as Potential Anticancer Agents” (Pharmaceuticals, 2025).
Like-named read-outs stand apart in the source and are kept apart here.

Tests used:
MOLT-4 = test: NCI-60 screening, one-dose (10 µM) and five-dose, SRB; format: cell-based, human; details: Homo sapiens; 10 μM; MOLT-4, Leukemia; read-out: Growth percentage
SF-539 = test: as above; format: cell-based, human; details: Homo sapiens, SF-539, 10 μM; SF-539, CNS Cancer; read-out: Growth percentage
U251 = test: as above; format: cell-based, human; details: Homo sapiens, U-251; 10 μM; U251, CNS Cancer; read-out: Growth percentage
ACHN = test: as above; format: cell-based, human; details: Homo sapiens, 10 μM, Renal Cancer, read-out: Growth percentage
OVCAR-4 = test: as above; format: cell-based, human; details: Homo sapiens; 10 μM; OVCAR-4, Ovarian Cancer; read-out: Growth percentage
NCI-H23 = test: as above; format: cell-based, human; details: Homo sapiens; 10 μM; NCI-H23, Non-Small-Cell Lung Cancer; read-out: Growth percentage
OVCAR-5 = test: as above; format: cell-based, human; details: 10 μM; OVCAR-5, Ovarian Cancer
T-47D = test: as above; format: cell-based, human; details: 10 μM, Breast Cancer
EKVX = test: as above; format: cell-based, human; details: Homo sapiens, 10 μM, Non-Small-Cell Lung Cancer, read-out: Growth percentage
SK-MEL-28 = test: as above; format: cell-based, human; details: Homo sapiens; 10 μM; SK-MEL-28, Melanoma; read-out: Growth percentage
NCI-H522 = test: as above; format: cell-based, human; details: Homo sapiens; 10 μM; NCI-H522, Non-Small-Cell Lung Cancer; read-out: Growth percentage
HOP-92 = test: as above; format: cell-based, human; details: Homo sapiens; 10 μM; HOP-92, Non-Small-Cell Lung Cancer; read-out: Growth percentage
[1] = test system: 60 human cancer cell lines; test: NCI-60 screening, full panel (mean growth, MID a, ranges over all lines); details: Homo sapiens, read-out: Mean growth percentage
Protocol: The screening was performed in accordance with the protocols set forth by the Drug Evaluation Department of the National Cancer Institute (NCI), Bethesda, USA, for in vitro anticancer efficacy at a single concentration of 10 µM against a panel of 60 cancer cell lines derived from nine distinct organs (https://dctd.cancer.gov/data-tools-biospecimens/data (accessed on 15 March 2023 and 6 January 2024)) [37].
The log10 GI50, log10 TGI, and log10 LC50 values were subsequently calculated as the averages of the log10 values of the respective individual GI50, TGI, and LC50 measurements. Negative numbers signified the most sensitive cell lines.
One way to measure a compound’s selectivity is to divide its subpanel MID^b (in μM) by the MID^a (in μM), which is the average sensitivity of all cell lines to the test agent.
At the National Cancer Institute (NCI) in Bethesda, USA, researchers examined the anticancer potential of the target compounds under investigation using nine panels of sixty different cell lines obtained from nine different cancers that were housed in the NCI library. Following the protocols laid out by the National Cancer Institute (https://dctd.cancer.gov/data-tools-biospecimens/data (accessed on 15 March 2023 and 6 January 2024)), the screening procedures were carried out [37]. The anticancer screening was carried out at a single dose of 10^−5 M; the results obtained were expressed as growth inhibition (%).
The anti-cancer potential of the tested compounds was evaluated at the National cancer institute (NCI), Bethesda, USA, against 9 panels of 60 various cell lines derived from nine human tumours available usually at NCI library. The procedures for the screening were described in details in NCI website (dttp://www.dtp.nci.nih.gov.) and were done according to NCI protocols. The anticancer screening was carried out at single dose of 10^-5 M. The results obtained as growth inhibition (%).
Cell lines were grown in Roswell Park Memorial Institute medium (RPMI) with 5% fetal bovine serum and 2% μM L-glutamine. Cancer cells are inoculated into 96 well microtiter plates in 100 μL at plating densities ranging from 5000 to 40,000 cells/well depending on the doubling time of individual cell lines. Then microtiter plates are incubated at 37 °C, 5% CO2, 95% air and 100% relative humidity for 24 h prior to the addition of the tested compounds. After 24 h, two plates of each cell line are fixed in situ with trichloroacetic acid (TCA). The tested compounds were dissolved in dimethyl sulfoxide (DMSO) and stored in the freezer prior to use. An aliquot of frozen drug concentrate is diluted to the desired concentration with complete medium containing 50 μg/mL gentamicin.

SF-268 = test: NCI-60 screening, one-dose (10 µM) and five-dose, SRB; format: cell-based, human; details: Homo sapiens; 10 μM; SF-268, CNS Cancer; read-out: Growth percentage
KM12 = test: as above; format: cell-based, human; details: Homo sapiens, KM12, 10 μM; KM12, Colon Cancer; read-out: Growth percentage
UACC-257 = test: as above; format: cell-based, human; details: Homo sapiens; 10 μM; UACC-257, Melanoma; read-out: Growth percentage
UACC-62 = test: as above; format: cell-based; details: Homo sapiens
HT29 = test: as above; format: cell-based, human; details: Homo sapiens, HT-29; 10 μM; HT29, Colon Cancer; read-out: Growth percentage
CCRF-CEM = test: as above; format: cell-based, human; details: Homo sapiens, 10 μM, Leukemia, read-out: Growth percentage
HCC-2998 = test: as above; format: cell-based, human; details: Homo sapiens; 10 μM; HCC-2998, Colon Cancer; read-out: Growth percentage
HS 578T = test: as above; format: cell-based, human; details: Homo sapiens, 10 μM, Breast Cancer, read-out: Growth percentage
DU-145 = test: as above; format: cell-based, human; details: Homo sapiens; 10 μM; DU-145, Prostate Cancer; read-out: Growth percentage
OVCAR-3 = test: as above; format: cell-based; details: Homo sapiens; 10 μM; OVCAR-3, Ovarian Cancer; read-out: Growth percentage
SNB-19 = test: as above; format: cell-based; details: Homo sapiens
K-562 = test: as above; format: cell-based, human; details: Homo sapiens, K562, 10 μM; K-562, Leukemia; read-out: Growth percentage
SK-OV-3 = test: as above; format: cell-based, human; details: Homo sapiens; 10 μM; SK-OV-3, Ovarian Cancer; read-out: Growth percentage
MCF7 = test: as above; format: cell-based, human; details: Homo sapiens, MCF7, 10 μM; MCF7, Breast Cancer; read-out: Growth percentage
[2] = 10 μM, UACC-62, Melanoma, read-out: Growth percentage
[3] = 10 μM, SNB-19, CNS Cancer, read-out: Growth percentage

Cc1nc(SCC(=O)N2CCN(c3cc4c(cc3F)c(=O)c(C(=O)O)cn4C3CC3)CC2)sc1C(=O)/C=C/c1ccc(Cl)cc1 [Compound 4c, (E)-7-(4-(2-((5-(3-(4-Chlorophenyl)acryloyl)-4-methylthiazol-2-yl)thio)acetyl)piperazin-1-yl)-1-cyclopropyl-6-fluoro-4-oxo-1,4-dihydroquinoline-3-carboxylic Acid]
activity at 10 µM (MOLT-4): 103% | activity at 10 µM (SF-539): 97.7% | activity at 10 µM (U251): 111% | activity at 10 µM (ACHN): 96.4% | activity at 10 µM (OVCAR-4): 107% | activity at 10 µM (NCI-H23): 96.5% | Growth percentage (OVCAR-5): 100.3% | Growth percentage (T-47D): 116.3% | activity at 10 µM (EKVX): 103% | activity at 10 µM (SK-MEL-28): 100% | activity at 10 µM (NCI-H522): 95.9% | activity at 10 µM (HOP-92): 119% | activity at 10 µM [1]: 103% | activity at 10 µM (SF-268): 180% | activity at 10 µM (KM12): 104% | activity at 10 µM (UACC-257): 117% | activity at 10 µM (UACC-62; [2]): 94.9% | activity at 10 µM (HT29): 108% | activity at 10 µM (CCRF-CEM): 102% | activity at 10 µM (HCC-2998): 104% | activity at 10 µM (HS 578T): 105% | activity at 10 µM (DU-145): 178% | activity at 10 µM (OVCAR-3): 188% | activity at 10 µM (SNB-19; SNB-19, read-out: Growth percentage): 100% | activity at 10 µM (K-562): 93.1% | activity at 10 µM (SK-OV-3): 129% | activity at 10 µM (MCF7): 52.9%

Cc1nc(SCC(=O)N2CCN(c3cc4c(cc3F)c(=O)c(C(=O)O)cn4C3CC3)CC2)sc1C(=O)/C=C/c1ccc(F)cc1 [Compound 4e, (E)-1-Cyclopropyl-6-fluoro-7-(4-(2-((5-(3-(4-fluorophenyl)acryloyl)-4-methylthiazol-2-yl)thio)acetyl)piperazin-1-yl)-4-oxo-1,4-dihydroquinoline-3-carboxylic Acid]
activity at 10 µM (MOLT-4): 105% | activity at 10 µM (SF-539): 99% | activity at 10 µM (U251): 114% | activity at 10 µM (ACHN): 98.9% | activity at 10 µM (OVCAR-4): 102% | activity at 10 µM (NCI-H23): 101% | Growth percentage (OVCAR-5): 119.2% | Growth percentage (T-47D): 95.6% | activity at 10 µM (EKVX): 108% | activity at 10 µM (SK-MEL-28): 116% | activity at 10 µM (NCI-H522): 98.2% | activity at 10 µM (HOP-92): 98% | activity at 10 µM [1]: 100% | activity at 10 µM (SF-268): 111% | activity at 10 µM (KM12): 97.3% | activity at 10 µM (UACC-257): 106% | activity at 10 µM (UACC-62; [2]): 99.6% | activity at 10 µM (HT29): 115% | activity at 10 µM (CCRF-CEM): 104% | activity at 10 µM (HCC-2998): 107% | activity at 10 µM (HS 578T): 105% | activity at 10 µM (DU-145): 105% | activity at 10 µM (OVCAR-3): 116% | activity at 10 µM (SNB-19; [3]): 101% | activity at 10 µM (K-562): 98.2% | activity at 10 µM (SK-OV-3): 114% | activity at 10 µM (MCF7): 70.6%

Cc1nc(SCC(=O)N2CCN(c3cc4c(cc3F)c(=O)c(C(=O)O)cn4C3CC3)CC2)sc1C(=O)/C=C/c1ccc(Br)cc1 [Compound 4f, (E)-7-(4-(2-((5-(3-(4-Bromophenyl)acryloyl)-4-methylthiazol-2-yl)thio)acetyl)piperazin-1-yl)-1-cyclopropyl-6-fluoro-4-oxo-1,4-dihydroquinoline-3-carboxylic Acid]
activity at 10 µM (MOLT-4): 96.2% | activity at 10 µM (SF-539): 89.9% | activity at 10 µM (U251): 98.4% | activity at 10 µM (ACHN): 107% | activity at 10 µM (OVCAR-4): 102% | activity at 10 µM (NCI-H23): 102% | Growth percentage (OVCAR-5): 110.6% | Growth percentage (T-47D): 89.3% | activity at 10 µM (EKVX): 107% | activity at 10 µM (SK-MEL-28): 114% | activity at 10 µM (NCI-H522): 105% | activity at 10 µM (HOP-92): 115% | activity at 10 µM [1]: 102% | activity at 10 µM (SF-268): 116% | activity at 10 µM (KM12): 108% | activity at 10 µM (UACC-257): 118% | activity at 10 µM (UACC-62; [2]): 105% | activity at 10 µM (HT29): 117% | activity at 10 µM (CCRF-CEM): 106% | activity at 10 µM (HCC-2998): 115% | activity at 10 µM (HS 578T): 99.6% | activity at 10 µM (DU-145): 113% | activity at 10 µM (OVCAR-3): 170% | activity at 10 µM (SNB-19; [3]): 93.8% | activity at 10 µM (K-562): 96.2% | activity at 10 µM (SK-OV-3): 110% | activity at 10 µM (MCF7): 70.8%

Cc1nc(SCC(=O)N2CCN(c3cc4c(cc3F)c(=O)c(C(=O)O)cn4C3CC3)CC2)sc1C(=O)/C=C/c1cccc([N+](=O)[O-])c1 [Compound 4g, (E)-1-Cyclopropyl-6-fluoro-7-(4-(2-((4-methyl-5-(3-(3-nitrophenyl)acryloyl)thiazol-2-yl)thio)acetyl)piperazin-1-yl)-4-oxo-1,4-dihydroquinoline-3-carboxylic Acid]
activity at 10 µM (MOLT-4): 86.4% | activity at 10 µM (SF-539): 64.5% | activity at 10 µM (U251): 50.7% | activity at 10 µM (ACHN): 110% | activity at 10 µM (OVCAR-4): 103% | activity at 10 µM (NCI-H23): 87.8% | Growth percentage (OVCAR-5): 119.9% | Growth percentage (T-47D): 84.1% | activity at 10 µM (EKVX): 111% | activity at 10 µM (SK-MEL-28): 80.8% | activity at 10 µM (NCI-H522): 72.3% | activity at 10 µM (HOP-92): 68.4% | activity at 10 µM [1]: 80% | activity at 10 µM (SF-268): 172% | activity at 10 µM (KM12): 21.7% | activity at 10 µM (UACC-257): 99.8% | activity at 10 µM (UACC-62; UACC-62, read-out: Growth percentage): 71.9% | activity at 10 µM (HT29): 37.2% | activity at 10 µM (CCRF-CEM): 74.5% | activity at 10 µM (HCC-2998): 50.3% | activity at 10 µM (HS 578T): 99.1% | activity at 10 µM (DU-145): 108% | activity at 10 µM (OVCAR-3): 163% | activity at 10 µM (SNB-19; [3]): 87.7% | activity at 10 µM (K-562): 29.3% | activity at 10 µM (SK-OV-3): 121% | activity at 10 µM (MCF7): 11.6%

Cc1nc(SCC(=O)N2CCN(c3cc4c(cc3F)c(=O)c(C(=O)O)cn4C3CC3)CC2)sc1C(=O)/C=C/c1ccc([N+](=O)[O-])cc1 [Compound 4h, (E)-1-Cyclopropyl-6-fluoro-7-(4-(2-((4-methyl-5-(3-(4-nitrophenyl)acryloyl)thiazol-2-yl)thio)acetyl)piperazin-1-yl)-4-oxo-1,4-dihydroquinoline-3-carboxylic Acid]
activity at 10 µM (MOLT-4): 62.7% | activity at 10 µM (SF-539): 67.9% | activity at 10 µM (U251): 59.9% | activity at 10 µM (ACHN): 96.7% | activity at 10 µM (OVCAR-4): 89.2% | activity at 10 µM (NCI-H23): 73.2% | Growth percentage (OVCAR-5): 121.1% | Growth percentage (T-47D): 64.1% | activity at 10 µM (EKVX): 113% | activity at 10 µM (SK-MEL-28): 60% | activity at 10 µM (NCI-H522): 27.9% | activity at 10 µM (HOP-92): 126% | activity at 10 µM [1]: 77.6% | activity at 10 µM (SF-268): 81.1% | activity at 10 µM (KM12): 54.4% | activity at 10 µM (UACC-257): 82.6% | activity at 10 µM (UACC-62; [2]): 59% | activity at 10 µM (HT29): 76.1% | activity at 10 µM (CCRF-CEM): 45.7% | activity at 10 µM (HCC-2998): 71.9% | activity at 10 µM (HS 578T): 99.6% | activity at 10 µM (DU-145): 85.3% | activity at 10 µM (OVCAR-3): 49.4% | activity at 10 µM (SNB-19; [3]): 72.2% | activity at 10 µM (K-562): 28.9% | activity at 10 µM (SK-OV-3): 119% | activity at 10 µM (MCF7): 7.2%
